Here are results for four molecules from ChEMBL document CHEMBL5108067, “Discovery of Potent OTUB1/USP8 Dual Inhibitors Targeting Proteostasis in Non-Small-Cell Lung Cancer” (J Med Chem, 2022).

The target in series [1] is T1, Ubiquitin thioesterase OTUB1 (Homo sapiens, UniProt Q96FW1). The series is described as follows: Inhibition of N-terminal His-6 tagged OTUB1 (40 to 271 residues) (unknown origin) expressed in Escherichia coli BL21 (DE3) cells at […] using Ub-Rho measured after 0.5 to 3 hrs by fluorescence based Plate reader method relative to control. The note with it: dose 2.5 µM, time 0.5-3 hrs.
T1 sequence (Q96FW1 whole entry, the tested form may be a part): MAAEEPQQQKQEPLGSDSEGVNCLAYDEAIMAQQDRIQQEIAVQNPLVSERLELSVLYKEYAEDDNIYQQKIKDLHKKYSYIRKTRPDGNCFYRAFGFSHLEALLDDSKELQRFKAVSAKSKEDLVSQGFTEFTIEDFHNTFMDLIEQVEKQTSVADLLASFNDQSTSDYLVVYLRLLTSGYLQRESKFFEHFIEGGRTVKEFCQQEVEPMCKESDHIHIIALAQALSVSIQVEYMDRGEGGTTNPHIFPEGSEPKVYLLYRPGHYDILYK

The target in series [2] is T1, Ubiquitin thioesterase OTUB1. The series is described as follows: Inhibition of N-terminal His-6 tagged OTUB1 (40 to 271 residues) (unknown origin) expressed in Escherichia coli BL21 (DE3) cells using Ub-Rho measured after 0.5 to 3 hrs by fluorescence based Plate reader method.
The target is the same in series [3]. Kind of series: Binding affinity to OTUB1 in HEK293T cells at 5 uM preincubated for 30 mins followed by UV irradiation and measured after 20 mins by Western blot assay. Format: cell-based. The note with it: time 50.0 min.
For series [4] the target is unchanged. Kind of series: Binding affinity to OTUB1 in HEK293T cells at 1 uM preincubated for 2 hrs followed by UV irradiation and measured after 20 mins by silver staining based gel electrophoresis assay. To be noted: time 140.0 min. Format: cell-based.
For series [5] the target is unchanged. Kind of series: Binding affinity to OTUB1 in HEK293T cells at […] preincubated for 30 mins followed by UV irradiation and measured after 20 mins by Western blot analysis. Format: cell-based. To be noted: dose 2.5 µM, time 50.0 min. (In general: In western blotting, separated proteins are transferred to a membrane and probed.)
Series [6] has the same target. Kind of series: Binding affinity to OTUB1 in HEK293T cells at 0.5 uM preincubated for 2 hrs followed by UV irradiation and measured after 20 mins by Western blot analysis. It counts as cell-based. The note with it: time 140.0 min.
The target of series [7] is T2, Ubiquitin carboxyl-terminal hydrolase 8 (Homo sapiens) (UniProt P40818).
T2 sequence (whole entry): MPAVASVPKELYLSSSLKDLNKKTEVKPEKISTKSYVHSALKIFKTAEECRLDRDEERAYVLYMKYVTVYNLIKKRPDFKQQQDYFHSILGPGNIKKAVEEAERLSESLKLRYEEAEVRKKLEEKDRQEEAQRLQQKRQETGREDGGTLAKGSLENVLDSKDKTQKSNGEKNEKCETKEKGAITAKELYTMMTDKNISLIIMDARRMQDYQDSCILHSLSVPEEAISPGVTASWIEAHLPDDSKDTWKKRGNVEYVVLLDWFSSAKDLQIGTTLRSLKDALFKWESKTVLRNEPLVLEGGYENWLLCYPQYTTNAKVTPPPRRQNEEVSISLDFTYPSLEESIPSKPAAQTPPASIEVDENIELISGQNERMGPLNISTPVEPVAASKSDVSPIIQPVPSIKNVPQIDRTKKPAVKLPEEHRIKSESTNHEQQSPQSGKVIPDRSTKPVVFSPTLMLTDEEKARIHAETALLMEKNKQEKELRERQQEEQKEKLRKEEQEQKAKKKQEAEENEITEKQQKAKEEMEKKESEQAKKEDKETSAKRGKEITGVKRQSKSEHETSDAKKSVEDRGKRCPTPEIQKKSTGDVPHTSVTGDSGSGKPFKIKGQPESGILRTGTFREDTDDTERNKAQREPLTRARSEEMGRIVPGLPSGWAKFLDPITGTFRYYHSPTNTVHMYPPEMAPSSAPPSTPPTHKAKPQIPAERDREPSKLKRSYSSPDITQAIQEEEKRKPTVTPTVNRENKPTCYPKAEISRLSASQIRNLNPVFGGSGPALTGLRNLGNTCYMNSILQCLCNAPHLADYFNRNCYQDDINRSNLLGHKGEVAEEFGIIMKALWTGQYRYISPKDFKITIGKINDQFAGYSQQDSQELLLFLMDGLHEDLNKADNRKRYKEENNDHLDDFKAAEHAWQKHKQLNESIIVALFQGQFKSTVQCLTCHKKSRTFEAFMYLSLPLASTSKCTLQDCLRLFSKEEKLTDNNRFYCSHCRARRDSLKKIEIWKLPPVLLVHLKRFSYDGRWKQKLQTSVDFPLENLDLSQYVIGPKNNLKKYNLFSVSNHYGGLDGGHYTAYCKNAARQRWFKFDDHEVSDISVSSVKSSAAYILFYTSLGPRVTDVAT
The series is described as follows: Inhibition of N-terminal His-6 tagged USP8 (734 to 1110 residues) (unknown origin) expressed in Escherichia coli BL21 (DE3) cells at 10 nM measured after 3 hrs by fluorescence based Plate reader method relative to control. The note with it: values are per cent of control.

For series [8], the target named is T2, Ubiquitin carboxyl-terminal hydrolase 8 (Homo sapiens). The series is described as follows: Inhibition of N-terminal His-6 tagged USP8 (734 to 1110 residues) (unknown origin) expressed in Escherichia coli BL21 (DE3) cells at 100 nM measured after 3 hrs by fluorescence based Plate reader method relative to control. To be noted: values are per cent of control.

Series [9] addresses T1, Ubiquitin thioesterase OTUB1. Kind of series: Inhibition of N-terminal His-6 tagged OTUB1 (40 to 271 residues) (unknown origin) expressed in Escherichia coli BL21 (DE3) cells at 100 nM using Ub-Rho measured after 0.5 to 3 hrs by fluorescence based Plate reader method relative to control. To be noted: time 0.5-3 hrs, values are per cent of control.
Series [10] shares this target. The series is described as follows: Inhibition of N-terminal His-6 tagged OTUB1 (40 to 271 residues) (unknown origin) expressed in Escherichia coli BL21 (DE3) cells at 10 nM using Ub-Rho measured after 0.5 to 3 hrs by fluorescence based Plate reader method relative to control. The note with it: time 0.5-3 hrs, values are per cent of control.
Series [11] is described as follows: Aqueous solubility of the compound measured after 24 hr by […] LC-MS/MS analysis. It counts as physicochemical. To be noted: buffer.

SMILES strings stand for the structures. Activity calls are given as the source filed them. No cut-off for these calls is given here.

The term inhibition denotes the percentage by which the read-out fell short of the control. As for `O=C1c2ccccc2C(=O)c2oc(-c3ccccc3)nc21`, the inhibition in series [1] stood at 100%.

The IC50 is the concentration needed to halve the response being measured. A high value points to weaker potency in that assay. Take `C#CCCC1(CCN2CC[C@@H](Oc3cccc(-c4nc5c([nH]4)C(=O)c4ccccc4C5=O)c3)C2)N=N1`: it took 6.12 µM to reach half-maximal inhibition in series [2] (IC50). For the same molecule, in [3], the outcome was Active.

With `C#CCCC1(CCN2CC[C@@H](Oc3cccc(-c4nc5c(o4)C(=O)c4ccccc4C5=O)c3)C2)N=N1`, the result in series [4], in [5] and in series [6] was Active. Moreover, the midpoint of inhibition in series [2], the IC50, lay at 0.037 µM.

One may read the residual activity as what remains of the control signal, in per cent. A high value points to a small loss of activity. In the case of `CN1CCN(CCOc2ccc(F)c(-c3nc4c(o3)C(=O)c3ccccc3C4=O)c2Cl)CC1`, the residual activity in series [7] was found to be 26.7%; in series [8] it was 21.4%; in [9] it was 8.7%; in series [10] it was 17%. Besides, the solubility result in [11] was “Soluble”.
